From ChEMBL document CHEMBL1136216, “Potent quinoxaline-based inhibitors of PDGF receptor tyrosine kinase activity. Part 2: the synthesis and biological activities of RPR127963 an orally bioavailable inhibitor” (Bioorg Med Chem Lett, 2003)

Tests used:
HASMC = assay: Inhibition of mitogenesis in human aortic smooth muscle cells (HASMC); type: functional, cell-based
[1] = biological target: T1, Platelet-derived growth factor receptor (Homo sapiens, UniProt P09619+P16234); assay: Inhibition of Platelet-derived growth factor receptor; type: protein-complex assay
[2] = biological target: T1, Platelet-derived growth factor receptor; assay: Inhibition of Platelet-derived growth factor receptor at 1 uM; type: protein-complex assay
[3] = Bioavailability in rat after 1 day dosing; type: ADME, organism-based; conditions: in vivo
[4] = Bioavailability in rat after 4 day dosing; type: ADME, organism-based; conditions: in vivo
[5] = % Bioavailability after 1 day of the drug administration in rats; type: ADME, organism-based; conditions: rat, in vivo
[6] = % Bioavailability after 4 day of the drug administration in rats; type: ADME, organism-based; conditions: rat, in vivo
[7] = biological target: Macrophage colony-stimulating factor 1 receptor (Homo sapiens) (UniProt P07333); assay: Inhibition of Colony stimulating factor 1 receptor at 30 uM
Macrophage colony-stimulating factor 1 receptor (Homo sapiens), sequence (P07333 whole entry): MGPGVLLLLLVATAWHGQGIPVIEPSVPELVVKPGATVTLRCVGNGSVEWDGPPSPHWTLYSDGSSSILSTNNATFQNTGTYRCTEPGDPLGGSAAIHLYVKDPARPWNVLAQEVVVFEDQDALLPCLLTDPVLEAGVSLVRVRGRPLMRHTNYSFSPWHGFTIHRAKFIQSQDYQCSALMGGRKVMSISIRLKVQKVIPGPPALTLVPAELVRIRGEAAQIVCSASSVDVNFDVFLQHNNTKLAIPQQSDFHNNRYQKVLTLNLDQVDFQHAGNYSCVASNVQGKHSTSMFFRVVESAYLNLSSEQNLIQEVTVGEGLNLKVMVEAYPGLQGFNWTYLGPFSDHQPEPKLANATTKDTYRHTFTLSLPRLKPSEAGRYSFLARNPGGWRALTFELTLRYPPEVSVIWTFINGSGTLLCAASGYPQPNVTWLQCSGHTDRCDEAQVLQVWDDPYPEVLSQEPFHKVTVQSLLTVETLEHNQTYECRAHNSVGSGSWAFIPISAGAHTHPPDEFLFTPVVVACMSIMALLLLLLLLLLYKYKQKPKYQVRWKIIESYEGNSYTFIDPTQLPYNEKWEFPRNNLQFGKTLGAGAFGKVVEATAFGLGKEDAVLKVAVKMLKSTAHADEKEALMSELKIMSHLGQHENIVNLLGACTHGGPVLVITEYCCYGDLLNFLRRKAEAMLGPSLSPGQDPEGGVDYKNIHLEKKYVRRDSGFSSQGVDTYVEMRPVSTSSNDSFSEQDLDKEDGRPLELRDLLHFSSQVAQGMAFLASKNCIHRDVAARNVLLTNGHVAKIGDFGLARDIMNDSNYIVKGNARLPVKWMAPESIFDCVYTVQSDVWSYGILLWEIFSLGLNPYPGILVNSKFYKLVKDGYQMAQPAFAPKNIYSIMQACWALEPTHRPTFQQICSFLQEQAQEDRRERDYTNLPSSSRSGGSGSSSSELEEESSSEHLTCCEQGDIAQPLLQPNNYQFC

[8] = biological target: Hepatocyte growth factor receptor (Homo sapiens) (UniProt P08581); assay: Inhibition of Hepatocyte growth factor receptor at 30 uM; type: cell-based
Hepatocyte growth factor receptor (Homo sapiens), sequence (P08581 whole entry): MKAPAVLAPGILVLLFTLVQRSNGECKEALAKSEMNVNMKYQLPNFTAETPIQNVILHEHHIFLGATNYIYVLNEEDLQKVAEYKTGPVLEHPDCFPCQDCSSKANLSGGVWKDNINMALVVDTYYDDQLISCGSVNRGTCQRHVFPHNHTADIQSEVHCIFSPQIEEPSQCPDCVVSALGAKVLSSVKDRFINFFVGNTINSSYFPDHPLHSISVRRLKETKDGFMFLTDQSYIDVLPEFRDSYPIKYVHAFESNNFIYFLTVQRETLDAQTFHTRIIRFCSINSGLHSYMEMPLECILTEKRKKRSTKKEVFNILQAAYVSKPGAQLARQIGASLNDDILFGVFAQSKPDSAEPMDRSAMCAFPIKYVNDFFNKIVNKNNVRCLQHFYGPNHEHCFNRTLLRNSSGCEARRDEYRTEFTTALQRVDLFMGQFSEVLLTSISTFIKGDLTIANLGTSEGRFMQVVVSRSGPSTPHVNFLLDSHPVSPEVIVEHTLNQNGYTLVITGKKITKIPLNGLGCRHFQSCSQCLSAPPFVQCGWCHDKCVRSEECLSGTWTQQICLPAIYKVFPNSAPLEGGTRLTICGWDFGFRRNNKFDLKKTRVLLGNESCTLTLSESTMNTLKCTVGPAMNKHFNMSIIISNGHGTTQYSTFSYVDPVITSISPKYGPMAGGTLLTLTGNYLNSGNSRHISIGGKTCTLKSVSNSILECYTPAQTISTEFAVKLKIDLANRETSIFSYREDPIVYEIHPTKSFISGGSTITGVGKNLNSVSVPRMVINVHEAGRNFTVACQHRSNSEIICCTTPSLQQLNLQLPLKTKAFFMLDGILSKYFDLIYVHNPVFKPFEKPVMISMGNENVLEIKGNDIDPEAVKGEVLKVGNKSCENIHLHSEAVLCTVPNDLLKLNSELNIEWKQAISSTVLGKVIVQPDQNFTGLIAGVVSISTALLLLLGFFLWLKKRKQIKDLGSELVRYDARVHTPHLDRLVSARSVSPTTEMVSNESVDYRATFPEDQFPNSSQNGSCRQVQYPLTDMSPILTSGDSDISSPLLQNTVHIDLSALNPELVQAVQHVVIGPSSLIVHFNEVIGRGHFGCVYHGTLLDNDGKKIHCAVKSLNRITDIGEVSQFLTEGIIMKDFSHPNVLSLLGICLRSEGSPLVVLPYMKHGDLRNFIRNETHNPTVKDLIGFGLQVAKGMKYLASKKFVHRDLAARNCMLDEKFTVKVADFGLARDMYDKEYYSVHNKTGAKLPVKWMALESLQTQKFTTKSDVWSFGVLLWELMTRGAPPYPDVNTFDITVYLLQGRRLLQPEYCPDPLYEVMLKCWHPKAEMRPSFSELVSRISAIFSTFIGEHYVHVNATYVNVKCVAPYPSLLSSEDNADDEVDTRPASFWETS

[9] = biological target: c-Jun N-terminal kinase, JNK (Homo sapiens, UniProt P45983+P53779+P45984); assay: Inhibition of JNK, c-Jun N-terminal kinase; type: protein assay
[10] = biological target: Tyrosine-protein kinase JAK2 (Homo sapiens, UniProt O60674); assay: Inhibition of Janus kinase 2
Tyrosine-protein kinase JAK2, sequence (O60674 whole entry): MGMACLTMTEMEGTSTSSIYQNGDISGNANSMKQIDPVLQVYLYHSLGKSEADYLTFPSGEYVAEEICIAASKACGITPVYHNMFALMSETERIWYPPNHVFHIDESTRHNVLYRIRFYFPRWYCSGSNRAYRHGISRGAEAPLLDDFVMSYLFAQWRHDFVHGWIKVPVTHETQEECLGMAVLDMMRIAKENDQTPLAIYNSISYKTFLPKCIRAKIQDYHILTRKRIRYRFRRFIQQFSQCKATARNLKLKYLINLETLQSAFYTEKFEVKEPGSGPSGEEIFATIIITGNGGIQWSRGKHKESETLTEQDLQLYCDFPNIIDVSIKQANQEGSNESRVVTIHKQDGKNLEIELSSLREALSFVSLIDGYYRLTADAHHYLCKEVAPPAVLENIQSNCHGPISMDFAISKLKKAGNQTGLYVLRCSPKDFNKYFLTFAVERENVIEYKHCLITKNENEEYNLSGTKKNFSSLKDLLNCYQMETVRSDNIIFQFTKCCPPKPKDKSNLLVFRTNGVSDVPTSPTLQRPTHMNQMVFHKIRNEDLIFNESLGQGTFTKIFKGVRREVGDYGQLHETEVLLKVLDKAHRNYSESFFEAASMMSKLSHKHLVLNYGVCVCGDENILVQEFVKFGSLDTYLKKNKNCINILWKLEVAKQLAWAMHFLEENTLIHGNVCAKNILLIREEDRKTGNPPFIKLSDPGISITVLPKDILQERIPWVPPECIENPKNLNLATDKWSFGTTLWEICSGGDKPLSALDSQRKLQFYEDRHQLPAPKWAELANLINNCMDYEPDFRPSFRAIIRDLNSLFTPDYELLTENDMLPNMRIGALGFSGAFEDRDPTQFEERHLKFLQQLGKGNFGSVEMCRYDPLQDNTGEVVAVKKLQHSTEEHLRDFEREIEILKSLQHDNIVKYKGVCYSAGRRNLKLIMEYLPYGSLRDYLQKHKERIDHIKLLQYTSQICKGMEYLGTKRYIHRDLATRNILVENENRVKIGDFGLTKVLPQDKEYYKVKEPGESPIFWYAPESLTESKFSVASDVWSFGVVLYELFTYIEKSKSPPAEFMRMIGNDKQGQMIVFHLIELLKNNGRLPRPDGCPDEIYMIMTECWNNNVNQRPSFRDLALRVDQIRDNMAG

[11] = biological target: T2, Tyrosine-protein kinase JAK3 (Homo sapiens, UniProt P52333); assay: Inhibition of Janus kinase 3
T2 sequence (P52333 whole entry): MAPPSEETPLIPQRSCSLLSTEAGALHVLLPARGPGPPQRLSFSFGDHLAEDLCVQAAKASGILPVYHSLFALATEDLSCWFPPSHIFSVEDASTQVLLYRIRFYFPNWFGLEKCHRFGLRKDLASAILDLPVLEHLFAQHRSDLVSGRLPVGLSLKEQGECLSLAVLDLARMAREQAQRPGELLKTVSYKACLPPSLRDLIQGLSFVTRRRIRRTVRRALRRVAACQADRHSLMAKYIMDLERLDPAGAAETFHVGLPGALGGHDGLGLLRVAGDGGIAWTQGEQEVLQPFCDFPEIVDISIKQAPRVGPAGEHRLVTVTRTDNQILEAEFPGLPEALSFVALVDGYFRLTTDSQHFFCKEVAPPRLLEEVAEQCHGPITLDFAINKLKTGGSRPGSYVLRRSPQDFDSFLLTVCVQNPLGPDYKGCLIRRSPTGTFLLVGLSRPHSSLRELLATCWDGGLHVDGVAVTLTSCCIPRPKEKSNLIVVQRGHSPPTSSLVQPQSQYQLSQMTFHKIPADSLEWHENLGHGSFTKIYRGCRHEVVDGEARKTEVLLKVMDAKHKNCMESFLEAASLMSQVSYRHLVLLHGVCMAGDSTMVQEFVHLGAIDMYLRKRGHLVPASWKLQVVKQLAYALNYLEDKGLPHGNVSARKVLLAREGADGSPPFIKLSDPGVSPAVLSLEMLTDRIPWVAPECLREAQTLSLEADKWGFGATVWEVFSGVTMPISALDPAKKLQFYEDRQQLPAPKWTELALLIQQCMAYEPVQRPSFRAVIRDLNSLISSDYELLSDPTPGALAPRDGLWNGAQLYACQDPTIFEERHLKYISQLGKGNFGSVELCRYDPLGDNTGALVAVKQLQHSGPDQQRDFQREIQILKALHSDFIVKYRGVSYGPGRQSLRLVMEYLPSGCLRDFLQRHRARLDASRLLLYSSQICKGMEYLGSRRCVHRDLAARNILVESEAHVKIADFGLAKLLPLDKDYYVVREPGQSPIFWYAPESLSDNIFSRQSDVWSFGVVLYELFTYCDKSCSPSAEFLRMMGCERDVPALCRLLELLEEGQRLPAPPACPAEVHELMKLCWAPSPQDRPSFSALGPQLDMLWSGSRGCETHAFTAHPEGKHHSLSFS

[12] = biological target: cAMP-dependent protein kinase (PKA) (Homo sapiens) (UniProt P22694+P17612+P22612); assay: Inhibition of Protein kinase A at 100 uM; type: protein assay
[13] = biological target: Protein kinase C (PKC) (Homo sapiens) (UniProt O94806+P41743+P17252+P05129+Q05655+P05771+Q05513+Q02156+P24723+Q15139+Q04759); assay: Inhibition of Protein kinase C at 100 uM; type: protein assay
[14] = biological target: Vascular endothelial growth factor receptor (Homo sapiens) (UniProt P17948+P35916+P35968); assay: Inhibition of VEGF receptor kinase at 30 uM; type: protein assay
[15] = Inhibition of Collagen production; type: functional
[16] = biological target: T3, Tyrosine-protein kinase ZAP-70 (Homo sapiens) (UniProt P43403); assay: Inhibition of Zeta-chain (TCR) associated protein kinase 70kDa, Zap70 at 10 uM
T3 sequence (whole entry): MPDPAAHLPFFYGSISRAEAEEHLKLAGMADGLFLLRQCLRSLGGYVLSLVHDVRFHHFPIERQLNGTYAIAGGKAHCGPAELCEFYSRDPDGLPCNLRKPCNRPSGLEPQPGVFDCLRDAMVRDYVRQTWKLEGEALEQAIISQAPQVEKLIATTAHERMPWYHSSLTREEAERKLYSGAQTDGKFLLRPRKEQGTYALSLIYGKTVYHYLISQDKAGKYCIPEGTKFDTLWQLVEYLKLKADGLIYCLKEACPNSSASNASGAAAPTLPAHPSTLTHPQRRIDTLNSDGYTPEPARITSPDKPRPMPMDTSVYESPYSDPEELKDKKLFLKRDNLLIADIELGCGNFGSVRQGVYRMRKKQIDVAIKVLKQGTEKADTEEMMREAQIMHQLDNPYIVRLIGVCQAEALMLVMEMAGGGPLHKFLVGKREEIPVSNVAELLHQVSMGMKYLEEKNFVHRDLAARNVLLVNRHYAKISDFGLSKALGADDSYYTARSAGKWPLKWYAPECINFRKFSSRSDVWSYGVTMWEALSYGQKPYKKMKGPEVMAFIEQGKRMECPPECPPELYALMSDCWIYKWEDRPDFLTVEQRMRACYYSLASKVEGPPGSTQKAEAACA

[17] = biological target: Tyrosine-protein kinase SYK (Homo sapiens) (UniProt P43405); assay: Inhibition of Syk tyrosine kinase at 10 uM
[18] = biological target: Insulin-like growth factor 1 receptor (Homo sapiens, UniProt P08069); assay: Inhibitory concentration against IGF kinase was determined.
Insulin-like growth factor 1 receptor, sequence (P08069 31-736 limits assumed): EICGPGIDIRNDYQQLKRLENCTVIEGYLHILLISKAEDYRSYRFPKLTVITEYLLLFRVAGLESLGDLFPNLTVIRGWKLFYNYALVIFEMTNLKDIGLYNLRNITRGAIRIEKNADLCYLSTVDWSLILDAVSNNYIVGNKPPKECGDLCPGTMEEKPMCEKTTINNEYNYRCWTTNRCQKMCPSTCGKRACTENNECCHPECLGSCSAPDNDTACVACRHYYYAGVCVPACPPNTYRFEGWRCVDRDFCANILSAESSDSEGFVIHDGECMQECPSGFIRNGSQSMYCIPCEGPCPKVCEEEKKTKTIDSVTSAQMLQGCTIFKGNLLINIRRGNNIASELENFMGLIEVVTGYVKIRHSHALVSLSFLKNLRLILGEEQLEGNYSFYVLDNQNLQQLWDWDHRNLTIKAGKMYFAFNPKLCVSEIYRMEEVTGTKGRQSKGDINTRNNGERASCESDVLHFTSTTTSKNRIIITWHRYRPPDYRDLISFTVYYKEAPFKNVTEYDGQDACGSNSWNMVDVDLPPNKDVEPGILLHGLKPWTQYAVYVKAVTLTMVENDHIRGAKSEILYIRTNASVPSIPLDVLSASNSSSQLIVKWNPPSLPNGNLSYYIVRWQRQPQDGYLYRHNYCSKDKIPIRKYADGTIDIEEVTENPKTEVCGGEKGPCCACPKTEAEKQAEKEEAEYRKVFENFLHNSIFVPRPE
Insulin-like growth factor 1 receptor, sequence (P08069 741-1367 limits assumed): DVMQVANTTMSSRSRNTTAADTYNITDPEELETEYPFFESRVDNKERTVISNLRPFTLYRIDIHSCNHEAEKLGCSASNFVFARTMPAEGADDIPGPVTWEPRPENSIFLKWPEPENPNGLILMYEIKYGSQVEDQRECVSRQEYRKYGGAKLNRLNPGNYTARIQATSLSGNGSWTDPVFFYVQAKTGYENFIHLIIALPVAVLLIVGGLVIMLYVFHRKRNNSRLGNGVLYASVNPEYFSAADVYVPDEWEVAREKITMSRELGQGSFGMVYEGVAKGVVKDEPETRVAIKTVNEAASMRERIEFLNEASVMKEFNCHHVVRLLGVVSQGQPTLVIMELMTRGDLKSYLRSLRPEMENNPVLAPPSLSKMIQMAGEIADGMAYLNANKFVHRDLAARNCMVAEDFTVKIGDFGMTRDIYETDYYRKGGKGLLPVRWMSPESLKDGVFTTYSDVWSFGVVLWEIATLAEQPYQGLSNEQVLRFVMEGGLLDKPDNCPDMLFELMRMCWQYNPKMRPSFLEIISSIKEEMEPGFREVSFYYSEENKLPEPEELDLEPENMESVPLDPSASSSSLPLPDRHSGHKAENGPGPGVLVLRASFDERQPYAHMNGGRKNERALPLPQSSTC

[19] = biological target: T1, Platelet-derived growth factor receptor; assay: Inhibition of Platelet-derived growth factor receptor at 10 uM; type: protein-complex assay

## COc1cc2ncc(N[C@@H]3CC[C@H](O)[C@@H](C)C3)nc2cc1OC
HASMC
  IC50: 0.134 µM
[1]
  IC50: 0.018 µM

## COc1cc2ncc(NC3CCCC(N)C3)nc2cc1OC (stereo not drawn)
[2]
  inhibition: -9%

## COc1cc2ncc(NC3CCCCC3)nc2cc1OC
[3]
  bioavailability: 17%
[4]
  bioavailability: 16%

## COc1cc2ncc(N[C@H]3CC[C@H](C(=O)OC)CC3)nc2cc1OC
[1]
  IC50: 0.345 µM

## COc1cc2cc(-c3ccsc3)cnc2cc1OC
[3]
  bioavailability: 49%
[4]
  bioavailability: 21%

## COc1cc2ncc(NC3CCC(C(N)=O)CC3)nc2cc1OC (stereo not drawn)
[1]
  IC50: 0.93 µM

## COc1cc2ncc(N[C@H]3CC[C@@H](O)[C@H](C)C3)nc2cc1OC
HASMC
  IC50: > 10 µM
[2]
  inhibition: 5%

## COC(=O)C1CCC(Nc2cnc3cc(OC)c(OC)cc3n2)CC1 (stereo not drawn)
[1]
  IC50: 0.049 µM

## COc1cc2ncc(N[C@H]3CC[C@H](O)CC3)nc2cc1OC
[5]
  bioavailability: 82%
[6]
  bioavailability: 72%
[7]
  inhibition: 2%
[8]
  inhibition: 17%
[9]
  IC50: > 50 µM
[10]
  IC50: > 50 µM
[11]
  IC50: > 50 µM
[12]
  inhibition: 3%
[13]
  inhibition: 7%
[14]
  inhibition: 0%
[15]
  IC50: 0.389 µM
[16]
  inhibition: 0%
[17]
  inhibition: 54%
[18]
  IC50: > 10 µM

## COc1cc2ncc(N3C(=O)C4CCC3CC4)nc2cc1OC
[19]
  inhibition: 14%

## CNC(=O)C1CCC(Nc2cnc3cc(OC)c(OC)cc3n2)CC1 (stereo not drawn)
[1]
  IC50: 3.1 µM

## COc1cc2ncc(NC3CCC(C(=O)O)CC3)nc2cc1OC (stereo not drawn)
[2]
  inhibition: 15%

## COc1cc2ncc(N[C@H]3CC[C@@H](C(=O)OC)CC3)nc2cc1OC
[1]
  IC50: 0.028 µM

## COc1cc2ncc(N[C@@H]3CC4CC3C[C@H]4O)nc2cc1OC (stereo partly drawn)
HASMC
  IC50: 0.164 µM
[1]
  IC50: 0.024 µM

## COc1cc2ncc(NC3CCC(C(=O)N4CCN(C)CC4)CC3)nc2cc1OC (stereo not drawn)
[2]
  inhibition: 10%
